From ChEMBL document CHEMBL1201862, “PubChem BioAssay data set” (2004)
The source made the active and inactive calls.

How the values were obtained:
[1] = biological target: T1, Sentrin-specific protease 7 (Homo sapiens, UniProt Q9BQF6); format: functional;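 further: Luminescence-based dose-response confirmation of ultra-high-throughput screening hits, measuring inhibition of SENP7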
T1 sequence (Q9BQF6 whole entry): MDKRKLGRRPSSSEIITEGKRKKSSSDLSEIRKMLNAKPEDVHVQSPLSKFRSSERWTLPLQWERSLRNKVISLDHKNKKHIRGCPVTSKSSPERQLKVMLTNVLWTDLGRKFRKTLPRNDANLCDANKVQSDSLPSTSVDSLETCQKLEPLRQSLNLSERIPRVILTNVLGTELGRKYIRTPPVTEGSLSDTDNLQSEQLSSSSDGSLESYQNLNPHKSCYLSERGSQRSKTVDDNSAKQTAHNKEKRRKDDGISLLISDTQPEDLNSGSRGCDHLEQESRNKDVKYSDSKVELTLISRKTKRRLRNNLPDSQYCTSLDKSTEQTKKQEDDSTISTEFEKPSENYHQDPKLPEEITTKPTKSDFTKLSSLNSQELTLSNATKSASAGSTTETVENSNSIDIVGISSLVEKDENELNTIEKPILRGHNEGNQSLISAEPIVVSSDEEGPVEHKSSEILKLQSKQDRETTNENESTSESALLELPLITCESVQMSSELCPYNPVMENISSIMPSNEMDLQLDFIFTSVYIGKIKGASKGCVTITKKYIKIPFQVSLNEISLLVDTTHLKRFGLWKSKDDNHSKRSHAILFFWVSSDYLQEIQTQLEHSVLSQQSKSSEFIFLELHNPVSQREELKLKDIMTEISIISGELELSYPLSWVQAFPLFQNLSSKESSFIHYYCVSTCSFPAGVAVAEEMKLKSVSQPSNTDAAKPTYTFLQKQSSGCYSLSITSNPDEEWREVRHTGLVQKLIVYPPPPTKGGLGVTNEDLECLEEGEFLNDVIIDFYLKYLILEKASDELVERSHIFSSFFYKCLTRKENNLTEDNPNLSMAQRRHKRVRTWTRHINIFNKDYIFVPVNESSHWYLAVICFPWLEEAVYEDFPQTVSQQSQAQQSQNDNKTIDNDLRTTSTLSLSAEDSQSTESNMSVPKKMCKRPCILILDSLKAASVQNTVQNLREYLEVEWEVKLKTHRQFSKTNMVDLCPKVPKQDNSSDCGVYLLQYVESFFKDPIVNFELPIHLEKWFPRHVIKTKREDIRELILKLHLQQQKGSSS

[2] = biological target: T2, Sentrin-specific protease 8 (Homo sapiens, UniProt Q96LD8); format: functional;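 further: luminescence read-out of SENP8 inhibition, dose-response confirmation following an ultra-high-throughput screen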
T2 sequence (Q96LD8 whole entry): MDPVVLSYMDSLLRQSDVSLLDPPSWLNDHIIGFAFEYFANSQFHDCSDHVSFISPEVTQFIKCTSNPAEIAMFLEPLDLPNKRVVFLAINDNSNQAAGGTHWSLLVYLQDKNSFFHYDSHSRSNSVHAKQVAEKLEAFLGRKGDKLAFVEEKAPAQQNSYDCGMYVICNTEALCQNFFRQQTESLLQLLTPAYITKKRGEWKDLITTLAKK

Caspase-3 = biological target: T3, Caspase-3 (Homo sapiens, UniProt P42574); format: functional;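 further: Dose-response selectivity test against caspase-3 for candidate inhibitors of sentrin-specific proteases (SENPs)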
T3 sequence (P42574 whole entry): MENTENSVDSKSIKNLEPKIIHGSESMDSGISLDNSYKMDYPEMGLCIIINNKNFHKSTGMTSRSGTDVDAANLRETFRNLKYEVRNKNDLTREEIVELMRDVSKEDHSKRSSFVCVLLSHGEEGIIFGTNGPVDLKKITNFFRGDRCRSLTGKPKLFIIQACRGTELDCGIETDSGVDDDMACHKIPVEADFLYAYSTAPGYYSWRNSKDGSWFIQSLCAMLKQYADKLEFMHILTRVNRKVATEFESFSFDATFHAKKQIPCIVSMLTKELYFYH

[3] = biological target: T4, Sentrin-specific protease 6 (Homo sapiens, UniProt Q9GZR1); format: functional;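 further: Luminescence-based dose-response confirmatory assay of SENP6 inhibition, following up an ultra-high-throughput screen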
T4 sequence (Q9GZR1 whole entry): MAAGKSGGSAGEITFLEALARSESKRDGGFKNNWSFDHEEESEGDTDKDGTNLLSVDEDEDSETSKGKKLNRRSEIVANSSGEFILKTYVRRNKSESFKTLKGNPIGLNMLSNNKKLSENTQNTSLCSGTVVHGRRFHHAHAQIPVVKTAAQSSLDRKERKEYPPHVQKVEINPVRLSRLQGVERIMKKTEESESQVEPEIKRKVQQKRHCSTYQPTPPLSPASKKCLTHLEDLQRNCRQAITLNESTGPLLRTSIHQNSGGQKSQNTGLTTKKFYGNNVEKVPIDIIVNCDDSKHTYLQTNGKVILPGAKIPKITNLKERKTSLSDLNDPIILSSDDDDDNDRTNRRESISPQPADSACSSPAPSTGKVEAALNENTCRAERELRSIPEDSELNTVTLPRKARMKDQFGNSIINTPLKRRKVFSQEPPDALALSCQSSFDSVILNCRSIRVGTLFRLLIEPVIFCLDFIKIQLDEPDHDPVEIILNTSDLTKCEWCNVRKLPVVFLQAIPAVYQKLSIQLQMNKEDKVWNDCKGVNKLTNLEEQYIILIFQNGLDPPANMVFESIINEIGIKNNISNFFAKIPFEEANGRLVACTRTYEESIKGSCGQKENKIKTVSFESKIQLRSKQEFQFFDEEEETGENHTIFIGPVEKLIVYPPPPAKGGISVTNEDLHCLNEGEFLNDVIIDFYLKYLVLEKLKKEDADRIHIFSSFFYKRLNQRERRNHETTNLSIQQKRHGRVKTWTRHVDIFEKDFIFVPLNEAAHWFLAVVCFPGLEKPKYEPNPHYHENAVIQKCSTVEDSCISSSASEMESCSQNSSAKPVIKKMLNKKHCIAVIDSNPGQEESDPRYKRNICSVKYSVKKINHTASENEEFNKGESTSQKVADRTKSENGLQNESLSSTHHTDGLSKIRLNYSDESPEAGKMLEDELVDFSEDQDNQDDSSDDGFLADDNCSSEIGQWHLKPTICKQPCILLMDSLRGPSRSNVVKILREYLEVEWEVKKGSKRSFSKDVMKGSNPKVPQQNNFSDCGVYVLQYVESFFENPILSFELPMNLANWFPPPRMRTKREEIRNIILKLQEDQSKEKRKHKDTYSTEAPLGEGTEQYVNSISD

[4] = Luminescence-based cell-based high throughput dose response assay to identify activators of the DAF-12 from the parasite S. stercoralis (ssDAF-12).; format: functional
[5] = biological target: T5, Oxysterols receptor LXR-beta (Homo sapiens, UniProt P55055); assay: LXR agonists, Gal4 luciferase reporter, dose response, counter-screen for ssDAF-12 agonist project, cell-based, luminescence, HEK293, S. stercoralis campaign (AID 720737); format: functional; settings: read-out: IC50 (the source's name)
T5 sequence (P55055 whole entry): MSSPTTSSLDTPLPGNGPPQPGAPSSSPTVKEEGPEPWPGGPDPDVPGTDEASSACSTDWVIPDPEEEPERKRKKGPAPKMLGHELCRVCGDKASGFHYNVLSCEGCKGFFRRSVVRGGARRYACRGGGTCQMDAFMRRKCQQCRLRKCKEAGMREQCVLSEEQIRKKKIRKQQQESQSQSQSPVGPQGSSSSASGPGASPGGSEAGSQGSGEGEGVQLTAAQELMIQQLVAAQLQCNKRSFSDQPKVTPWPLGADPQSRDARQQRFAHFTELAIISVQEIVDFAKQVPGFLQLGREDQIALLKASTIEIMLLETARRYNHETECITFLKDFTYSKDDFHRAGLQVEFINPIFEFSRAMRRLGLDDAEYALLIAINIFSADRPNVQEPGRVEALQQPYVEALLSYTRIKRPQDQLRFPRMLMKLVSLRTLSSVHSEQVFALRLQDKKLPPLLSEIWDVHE

[6] = HepG2 cell cytotoxicity, dose response, cytotoxicity control, plate reader, cherry-pick, antagonist series (AID 743416); format: functional, cell-based
[7] = A549 cell cytotoxicity, dose response, cytotoxicity control, plate reader, cherry-pick, antagonist series (AID 743412); format: functional, cell-based
[8] = LGR2 antagonists, dose response, cell-based, HEK293, CRE-luciferase reporter, cherry pick, set 2 (AID 743343); format: functional;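 further: transfected cells were stimulated with diluted bursicon conditioned medium after compound addition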
[9] = microbe, parasite or virus in culture; format: functional; settings: Mycobacterium tuberculosis
[10] = biological target: T6, Ubiquitin-conjugating enzyme E2 N (Homo sapiens, UniProt P61088); format: functional;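 further: Dose-response confirmation in a TR-FRET assay detecting UBC13-driven polyubiquitin chain formation, inhibition measured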
T6 sequence (P61088 whole entry): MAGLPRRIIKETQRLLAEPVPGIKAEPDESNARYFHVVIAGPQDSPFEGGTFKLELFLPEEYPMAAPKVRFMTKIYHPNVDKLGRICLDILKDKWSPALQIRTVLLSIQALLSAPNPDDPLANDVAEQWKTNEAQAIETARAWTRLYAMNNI

[11] = MC4R antagonists, dose response, counter-screen for LGR2 antagonist project, cell-based, plate reader, cherry pick (AID 743444); format: functional;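 further: transfected HEK 293 cells stimulated with alpha-MSH peptide; potency of inhibitors of the alpha-MSH evoked signal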
[12] = HEK293 cell cytotoxicity, dose response, cytotoxicity control, plate reader, cherry-picked samples (AID 743446); format: functional, cell-based
P388/ADR = assay: cells; format: functional; settings: Mus musculus
SN12K1 = assay: cells; format: functional; settings: Homo sapiens
P388 = assay: cells; format: functional; settings: Mus musculus
Paired box protein Pax-8 = Paired box protein Pax-8 (Homo sapiens, UniProt Q06710); assay: inhibitors of PAX8-driven TPO luciferase reporter, dose response, RMG-I cells, cherry-pick (AID 687027); format: functional, cell-based;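 further: luciferase reporter driven by Pax8 target thyroperoxidase promoter measured by SteadyGlo luminescence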
Paired box protein Pax-8, sequence (Q06710 whole entry): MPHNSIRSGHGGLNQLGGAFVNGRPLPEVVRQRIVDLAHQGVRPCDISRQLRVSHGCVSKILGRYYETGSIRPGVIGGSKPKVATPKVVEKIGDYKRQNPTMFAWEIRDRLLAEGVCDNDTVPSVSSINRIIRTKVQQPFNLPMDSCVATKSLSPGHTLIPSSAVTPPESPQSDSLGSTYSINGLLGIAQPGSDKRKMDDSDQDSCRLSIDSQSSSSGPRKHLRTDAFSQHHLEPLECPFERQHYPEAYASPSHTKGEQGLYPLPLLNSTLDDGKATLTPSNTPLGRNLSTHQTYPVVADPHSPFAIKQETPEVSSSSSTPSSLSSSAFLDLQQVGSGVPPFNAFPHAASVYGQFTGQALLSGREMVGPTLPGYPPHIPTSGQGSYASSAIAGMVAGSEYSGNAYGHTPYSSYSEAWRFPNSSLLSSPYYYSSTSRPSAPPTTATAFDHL

With `COc1cccc(-c2nnc(-c3ccccc3[N+](=O)[O-])o2)c1` the IC50 [1] was 10.4 µM (active), the IC50 [2] was > 100 µM (inactive) and the IC50 (Caspase-3) was 19.1 µM (active). The IC50 [3] was > 100 µM (inactive).

In the case of `O=C(Nc1ccc2c(c1)CCC2)c1ccc(Br)s1`, the IC50 [1] is reported as 3.4 µM (active), the IC50 [2] is reported as 4.31 µM (active) and the IC50 (Caspase-3) is reported as 17.5 µM (active). For the same compound, the IC50 [3] was 5.03 µM (active).

For `O=C(CCNC(=O)c1ccccc1)N=Nc1c(O)[nH]c2ccccc12`, the IC50 [4] was > 67.5 µM (inactive) and the EC50 [5] was > 67.5 µM (inactive).

In the case of `N#Cc1cc2ccccc2nc1SCc1ccccn1`, the IC50 [4] is reported as > 67.5 µM (inactive) and the EC50 [5] is reported as > 67.5 µM (inactive).

With `Ic1ccccc1CN[C@@H]1C2CCN(CC2)[C@@H]1C(c1ccccc1)c1ccccc1` the AC50 [6] was 8.05 µM (active), the AC50 [7] was 7.99 µM (active) and the AC50 [8] was 18.1 µM (active). The CC50 [9] was 12.6 µM (active), the IC50 [10] was > 20 µM (inactive) and the AC50 [11] was 21.6 µM (active). For the same compound, the AC50 [12] was 13.9 µM (active).

With `C=C1[C@@H](C)[C@H]2[C@H](Cc3ccccc3)NC(=O)[C@]23OC(=O)/C=C/[C@H](O)CCC[C@@H](C)C/C=C/[C@H]3[C@@H]1O` the GI50 (P388/ADR) was 15.3 µM (inactive), the GI50 (SN12K1) was 0.31 µM (active) and the GI50 (P388) was 12.4 µM (inactive).

For `COc1ccc(CC2C(=O)NC(C)C(=O)N(C)C3C(=O)N(C)C(Cc4ccc(O)c(c4)Oc4ccc(cc4)C3O)C(=O)NC(C)C(=O)NC(C)C(=O)N2C)cc1` (stereo not drawn), the AC50 (Paired box protein Pax-8) was < 0.26 µM (active), the GI50 (P388/ADR) was 2.26 µM (inactive) and the GI50 (SN12K1) was 0.00262 µM (active). For the same compound, the GI50 (P388) was 0.00373 µM (active).

In the case of `COC(=O)c1ccccc1NC(=O)c1ccnn1C`, the IC50 [4] is reported as > 67.5 µM (inactive) and the EC50 [5] is reported as > 67.5 µM (inactive).
